{"source": "patent US20060100190A1", "about": "“Motexafin lutetium phototherapy with low fluences for treating vascular inflammation” (Pharmacyclics, Inc., priority 2004, published 2006)", "key": {"[1]": {"test_system": "Fat-fed New Zealand rabbits", "experiment": "MLu phototherapy at low light fluence in fat-fed New Zealand rabbits", "type": "in vivo, rabbit", "settings": "PT at 732 nm, low light fluence 30-100 J/cmf", "from_the_text": "The methods, compositions, strategies and techniques described herein include processes to treat diffuse inflammation in blood vessels by administering a photo-activatable compound and low light fluence in the range of in the range of about 10 to about 400 Joules/cm of illuminated length in the general vicinity of the inflammation."}, "[2]": {"test_system": "Watanabe Heritable Hyperlipidemic (WHHL) rabbits", "experiment": "MLu phototherapy (732 nm, low fluences) of aortic atheroma in cholesterol-fed WHHL rabbits", "type": "in vivo, rabbit", "from_the_text": "FIG. 1 depicts treated segments of the rabbit aortic tree. In each rabbit, both T1 and T2 segments were about 30 mm in length with another 30 mm of buffer in between. Both T1 and T2 received the same fluence (J/cmf) at different fluence rates (mW/cmf) because T1 illumination period was shorter at 400 seconds compared to 900 seconds for T2.\nThirty 8 months old male Watanabe Heritable Hyperlipidemic (WHHL) rabbits were randomized after 3 weeks of 1% cholesterol feeding to either control or MLu groups (10 mg/kg, iv via ear vein). Intravascular illumination was performed 24 hours post-MLu using a fiber with a 30 mm active diffuser tip to deliver escalating fluences (30-175 J/cmf, 732 nm) for 400 s (upper) and 900 s (lower thoracic/abdominal aorta); control received no light. Rabbits were then switched to a normal diet immediately after phototherapy and sacrificed 3 weeks later. Aortas were harvested and examined for plaque (I/M ratios), Mac (RAM11), smooth muscle cell (myosin) and collagen (Picrosirius Red) changes."}, "atheroma": {"test_system": "atheroma", "settings": "reported; cited from earlier work"}}}
{"compound": "CC(=O)[O-].CC(=O)[O-].CCc1c(CC)c2cc3nc(cnc4cc(OCCOCCOCCOC)c(OCCOCCOCCOC)cc4ncc4nc(cc1[n-]2)C(CCCO)=C4C)C(C)=C3CCCO.O.[Lu+3]", "note": "[MLu, motexafin lutetium]", "values": [{"measurement": "diffuse inflammation in blood vessels (based on decrease in macrophage burden)", "setting": "[1]", "value": "significant reduction in diffuse inflammation"}, {"measurement": "macrophages in plaques", "setting": "[2]; 30-175 J/cmf delivered over 400 s and 900 s", "value": "macrophage depletion"}, {"measurement": "macrophage burden", "setting": "[2]; all tested fluence groups (30-175 J/cmf) vs. control, p<0.05, both T1 and T2 treated segments", "value": "statistical significant reduction in macrophage burden"}, {"measurement": "collagen (picrosirius red, bright-field and polarization microscopy)", "setting": "[2]; treated 30 J/cmf, 400 s vs. control", "value": "denser packing of matured collagen"}, {"measurement": "smooth muscle cell (SMC) content, histology of myosin-stained areas", "setting": "[2]; treated 30 J/cmf, 400 s vs. control (non-phototherapy)", "value": "did not appear to decrease"}, {"measurement": "SMC content (myosin positive areas), planimetry, % of the intima", "setting": "[2]; treated sections, 30 J/cmf, 400 s, control 43.1±3.8%", "value": "50.9±9.7", "unit": "%"}, {"measurement": "effect on macrophages (Mac) following phototherapy (PT)", "setting": "atheroma", "value": "destroys Mac by inducing apoptosis"}]}
